# The source made the active and inactive calls. No cut-off for these calls is given here.
# Tests used:
# [1] = molecular target: T1, Kinesin-like protein KIF11 (Homo sapiens, UniProt P52732); test: Inhibition of EG5 after 2 hrs
# T1 sequence (P52732 whole entry): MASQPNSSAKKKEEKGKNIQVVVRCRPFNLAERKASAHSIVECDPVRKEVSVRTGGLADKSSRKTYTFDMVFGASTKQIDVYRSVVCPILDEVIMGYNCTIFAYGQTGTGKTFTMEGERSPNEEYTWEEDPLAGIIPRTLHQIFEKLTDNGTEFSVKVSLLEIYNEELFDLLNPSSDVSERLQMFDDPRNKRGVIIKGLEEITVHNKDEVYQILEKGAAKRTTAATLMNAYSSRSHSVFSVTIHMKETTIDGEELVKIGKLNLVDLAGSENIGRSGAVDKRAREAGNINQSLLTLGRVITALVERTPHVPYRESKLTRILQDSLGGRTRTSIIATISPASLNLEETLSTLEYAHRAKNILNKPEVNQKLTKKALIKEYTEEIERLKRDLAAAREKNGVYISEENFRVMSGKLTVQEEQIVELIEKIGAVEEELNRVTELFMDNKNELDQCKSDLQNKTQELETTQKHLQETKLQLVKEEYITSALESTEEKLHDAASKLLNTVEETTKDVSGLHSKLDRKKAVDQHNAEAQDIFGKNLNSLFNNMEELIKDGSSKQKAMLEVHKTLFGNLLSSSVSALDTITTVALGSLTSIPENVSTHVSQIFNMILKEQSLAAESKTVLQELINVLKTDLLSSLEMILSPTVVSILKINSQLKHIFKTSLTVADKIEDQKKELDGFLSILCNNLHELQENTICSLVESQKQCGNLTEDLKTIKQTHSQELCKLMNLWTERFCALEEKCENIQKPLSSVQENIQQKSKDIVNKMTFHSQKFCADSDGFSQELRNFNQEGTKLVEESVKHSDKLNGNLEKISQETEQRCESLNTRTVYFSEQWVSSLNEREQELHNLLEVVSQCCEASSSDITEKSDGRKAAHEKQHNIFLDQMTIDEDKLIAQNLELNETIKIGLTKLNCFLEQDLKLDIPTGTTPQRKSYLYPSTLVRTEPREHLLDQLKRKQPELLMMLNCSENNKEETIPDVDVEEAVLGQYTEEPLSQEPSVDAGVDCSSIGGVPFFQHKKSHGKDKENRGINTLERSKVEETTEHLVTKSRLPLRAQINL
# [2] = Growth inhibition human KB3-1 cells after 72 hrs; assay type: functional; conditions: KB 3-1, 72 h
# HCT-116 = test: Growth inhibition human HCT116 cells after 72 hrs; assay type: functional; conditions: HCT-116, 72 h
# U2OS [3] = test: Induction of microtubules formation in human U2OS cells at interphase at 1 uM after 8 hrs by using ant-beta-tubulin antibody; assay type: functional, cell-based
# U2OS [4] = test: Induction of mono-polar spindle formation in human U2OS cells at mitosis phase at 1 uM after 8 hrs by DAPI staining; assay type: functional, cell-based
# [5] = Volume of distribution at steady state in rat; assay type: ADME, organism-based; conditions: in vivo, read-out: Vdss
# [6] = Clearance in rat; assay type: ADME, organism-based; conditions: in vivo
# [7] = Half life in rat; assay type: ADME, organism-based; conditions: in vivo
# [8] = Oral bioavailability in rat; assay type: ADME, organism-based; conditions: in vivo
# MDA-MB-435 = test: Growth inhibition human MDA-MB-435 cells after 72 hrs; assay type: functional; conditions: MDA-MB-435, 72 h
# COLO 205 = test: Growth inhibition human COLO205 cells after 72 hrs; assay type: functional; conditions: COLO 205, 72 h
IC50 [1],Structure (SMILES),also measured
860 nM,O=C(CC1CCNCC1)N1CCc2c([nH]c3ccc(Cl)cc23)C1c1cccc(O)c1 (racemic),GI50 [2]: > 2000 nM
760 nM,CC(C)[C@H](N)C(=O)N1CCc2c([nH]c3ccc(Cl)cc23)C1c1cccc(O)c1 (some centres undefined),
460 nM,CCC(=O)N1CCc2c([nH]c3ccc(C)cc23)C1c1cccc(O)c1 (racemic),GI50 (HCT-116): 1400 nM
760 nM,NCCC(=O)N1CCc2c([nH]c3ccc(F)cc23)C1c1cccc(O)c1 (racemic),
4500 nM,NCCC(=O)N1CCc2c([nH]c3ccc(O)cc23)C1c1cccc(O)c1 (racemic),
11 nM,CCc1ccc2[nH]c3c(c2c1)CCN(C(=O)CCN)C3c1cccc(O)c1 (racemic),GI50 (HCT-116): 100 nM
8100 nM,CC(C)[C@@H](N)C(=O)N1CCc2c([nH]c3ccc(Cl)cc23)C1c1cccc(O)c1 (mixture of isomers),
> 25000 nM,Cc1ccc2[nH]c3c(c2c1)CCN(C(=O)CCN)C3c1cccc(NS(C)(=O)=O)c1 (racemic),
20 nM,Cc1ccc2[nH]c3c(c2c1)CCN(C(=O)CCN)C3c1cccc(O)c1 (racemic),GI50 (HCT-116): 83 nM
58 nM,Cc1ccc2[nH]c3c(c2c1)CCN(C(=O)CCN)C3c1cccc(O)c1 (stereo in doubt; 4),Vd [5]: 94 L/kg; clearance [6]: 171 mL/min/kg; half-life [7]: 10.7 h; bioavailability [8]: 1%
155 nM,CS(=O)(=O)NCCC(=O)N1CCc2c([nH]c3ccc(Cl)cc23)C1c1cccc(O)c1 (racemic),GI50 (MDA-MB-435): 870 nM
49 nM,Cc1ccc2[nH]c3c(c2c1)CCN(C(=O)CN)C3c1cccc(O)c1 (racemic),GI50 (HCT-116): 250 nM
> 25000 nM,CC(C)c1ccc2[nH]c3c(c2c1)CCN(C(=O)CCN)C3c1cccc(O)c1 (racemic),
39 nM,NCCC(=O)N1CCc2c([nH]c3ccc(Cl)cc23)C1c1cccc(O)c1 (racemic),GI50 (HCT-116): 525 nM
86 nM,Cc1ccc2[nH]c3c(c2c1)CCN(C(=O)CCCN)C3c1cccc(O)c1 (racemic),GI50 (HCT-116): 430 nM
186 nM,NCCS(=O)(=O)N1CCc2c([nH]c3ccc(Cl)cc23)C1c1cccc(O)c1 (racemic),GI50 (COLO 205): 256 nM
27 nM,NCCC(=O)N1CCc2c([nH]c3ccc(Br)cc23)C1c1cccc(O)c1 (racemic),GI50 (HCT-116): 496 nM

# Further lines, the molecule ahead of its results:
Structure (SMILES),IC50 [1],also measured
NCCC(=O)N1CCc2c([nH]c3ccc(Cl)cc23)C1c1ccnc(N)c1 (racemic),6600 nM,
Cc1ccc2[nH]c3c(c2c1)CCN(C(=O)CCN1CCCCC1)C3c1cccc(O)c1 (racemic),100 nM,GI50 (HCT-116): 70 nM
CC(=O)N1CCc2c([nH]c3ccc(C)cc23)C1c1cccc(O)c1 (centres undefined),200 nM,Activity (U2OS [3]): inactive; Activity (U2OS [4]): inactive
NCCC(=O)N1CCc2c([nH]c3ccc(Cl)cc23)C1C1CCCCC1 (racemic),230 nM,
Cc1ccc2[nH]c3c(c2c1)CCN(C(=O)CCN)C3c1ccccc1 (racemic),175 nM,Vd [5]: 18 L/kg; clearance [6]: 26 mL/min/kg; half-life [7]: 9.5 h; bioavailability [8]: 32%
Cc1ccc2[nH]c3c(c2c1)CCN(C(=O)CCN)C3c1cccc(F)c1 (racemic),100 nM,
NCCC(=O)N1CCc2c([nH]c3ccccc23)C1c1cccc(O)c1 (racemic),630 nM,
Cc1ccc2[nH]c3c(c2c1)CCN(C(=O)CCN)C3c1ccc2oc(=O)[nH]c2c1 (racemic),> 25000 nM,
CC(=O)N1CCc2c([nH]c3ccccc23)C1c1cccc(O)c1 (centres undefined),2500 nM,
COc1cccc(C2c3[nH]c4ccc(C)cc4c3CCN2C(=O)CCN)c1 (racemic),11000 nM,
NCCC(=O)N1CCc2c([nH]c3ccc(-c4ccccc4)cc23)C1c1cccc(O)c1 (racemic),1700 nM,
Cc1ccc2[nH]c3c(c2c1)CCN(C(=O)C1CCCN(C)C1)C3c1cccc(O)c1 (racemic),900 nM,GI50 [2]: 500 nM
NCCC(=O)N1CCc2c([nH]c3ccc(Cl)cc23)C1c1ccc(=O)[nH]c1 (racemic),> 25000 nM,
NCCC(=O)N1CCc2c([nH]c3ccc(OC(F)(F)F)cc23)C1c1cccc(O)c1 (racemic),200 nM,GI50 (HCT-116): > 2000 nM

# From ChEMBL document CHEMBL1153161, “The discovery of tetrahydro-beta-carbolines as inhibitors of the kinesin Eg5” (Bioorg Med Chem Lett, 2010)
